In ChEMBL document CHEMBL1201862, “PubChem BioAssay data set” (2004):
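Cultured in 96-well plates, cells were exposed to test compound for 48 hours across five concentrations. GI50 = concentration required for 50% inhibition of growth.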 Activity calls are given as the source filed them. No stated cut-off is given here; in the data, active = GI50 up to about 1.1 µM and inactive = higher.

Assays:
Test in all cases: growth of human tumour cells (NCI), 48 h
786-0 = test system: 786-0
A498 = test system: A498
COLO 205 = test system: COLO 205
IGROV-1 = test system: IGROV-1
KM12 = test system: KM12
M14 = test system: M14
NCI-H226 = test system: NCI-H226
NCI-H23 = test system: NCI-H23
NCI-H522 = test system: NCI-H522
OVCAR-4 = test system: OVCAR-4
RPMI-8226 = test system: RPMI-8226
SK-MEL-28 = test system: SK-MEL-28
SN12C = test system: SN12C
SNB-19 = test system: SNB-19
SW-620 = test system: SW-620
UACC-62 = test system: UACC-62

Measured: GI50

Cc1cc(N(CCC#N)S(=O)(=O)c2ccccc2)ccc1C=O
inactive: 786-0 > 100 µM | A498 > 100 µM | COLO 205 > 100 µM | IGROV-1 > 100 µM | KM12 > 100 µM | M14 > 100 µM | NCI-H226 > 100 µM | NCI-H23 > 100 µM | NCI-H522 > 100 µM | OVCAR-4 > 100 µM | RPMI-8226 > 100 µM | SK-MEL-28 > 100 µM | SN12C > 100 µM | SNB-19 > 100 µM | SW-620 > 100 µM | UACC-62 > 100 µM

NC(=O)C(=O)C1C(=O)N(c2ccccc2)N=C1N (centres undefined)
inactive: 786-0 > 100 µM | COLO 205 > 100 µM | IGROV-1 > 100 µM | KM12 > 100 µM | M14 > 100 µM | NCI-H226 > 100 µM | NCI-H23 > 100 µM | NCI-H522 > 100 µM | OVCAR-4 > 100 µM | RPMI-8226 > 100 µM | SK-MEL-28 > 100 µM | SN12C > 100 µM | SNB-19 > 100 µM | SW-620 > 100 µM | UACC-62 > 100 µM

CN(C)CC1(C)CC/C(=C\c2ccc3c(c2)OCO3)C1=O (centres undefined)
inactive: 786-0 > 100 µM | A498 > 100 µM | COLO 205 > 100 µM | IGROV-1 > 100 µM | KM12 > 100 µM | M14 > 100 µM | NCI-H226 > 100 µM | NCI-H23 > 100 µM | NCI-H522 39.5 µM | OVCAR-4 > 100 µM | RPMI-8226 27.5 µM | SK-MEL-28 > 100 µM | SN12C > 100 µM | SNB-19 > 100 µM | SW-620 92.9 µM | UACC-62 67.3 µM

CC(C)(C)NCC(COc1ccc([N+](=O)[O-])cc1)OP(c1ccccc1)c1ccccc1 (centres undefined)
inactive: 786-0 29 µM | A498 44.7 µM | COLO 205 31.4 µM | IGROV-1 53.3 µM | KM12 29.9 µM | M14 26.8 µM | NCI-H226 29 µM | NCI-H23 44.9 µM | NCI-H522 19.3 µM | RPMI-8226 13.5 µM | SK-MEL-28 55 µM | SN12C 36.6 µM | SNB-19 38.7 µM | SW-620 47.4 µM | UACC-62 44.4 µM

CC(C)C(C(=O)O)N(CC1(O)OCC(O)C(O)C1O)N=O (centres undefined)
inactive: 786-0 > 100 µM | A498 > 100 µM | COLO 205 > 100 µM | IGROV-1 > 100 µM | KM12 > 100 µM | M14 > 100 µM | NCI-H23 > 100 µM | NCI-H522 > 100 µM | RPMI-8226 > 100 µM | SK-MEL-28 > 100 µM | SW-620 > 100 µM | UACC-62 > 100 µM

NC(N)=NN/C(=C1/N=c2ccc([N+](=O)[O-])cc2=NC1=O)C(O)c1ccco1 (centres undefined)
inactive: 786-0 > 100 µM | A498 > 100 µM | COLO 205 > 100 µM | IGROV-1 > 100 µM | KM12 > 100 µM | M14 > 100 µM | NCI-H226 > 100 µM | NCI-H23 > 100 µM | NCI-H522 32.8 µM | OVCAR-4 > 100 µM | RPMI-8226 43.7 µM | SK-MEL-28 > 100 µM | SN12C > 100 µM | SNB-19 > 100 µM | SW-620 > 100 µM | UACC-62 > 100 µM

CNC(C)(C)Cc1ccc(Cl)cc1
inactive: 786-0 > 100 µM | A498 > 100 µM | COLO 205 > 100 µM | IGROV-1 > 100 µM | KM12 > 100 µM | M14 > 100 µM | NCI-H23 > 100 µM | NCI-H522 > 100 µM | OVCAR-4 > 100 µM | RPMI-8226 > 100 µM | SK-MEL-28 > 100 µM | SN12C > 100 µM | SW-620 > 100 µM | UACC-62 > 100 µM

CN1NC(c2ccccc2)=C(C#N)C(=O)CC1c1ccc(F)cc1 (centres undefined)
inactive: A498 > 100 µM | COLO 205 > 100 µM | KM12 > 100 µM | NCI-H226 > 100 µM | NCI-H23 > 100 µM | NCI-H522 62.4 µM | OVCAR-4 > 100 µM | RPMI-8226 > 100 µM | SK-MEL-28 > 100 µM | SN12C > 100 µM | SNB-19 > 100 µM | SW-620 > 100 µM

CC(C)OC(=O)c1cccnc1/C=N/O
inactive: 786-0 > 100 µM | A498 > 100 µM | COLO 205 > 100 µM | IGROV-1 > 100 µM | KM12 > 100 µM | M14 > 100 µM | NCI-H226 > 100 µM | NCI-H23 > 100 µM | NCI-H522 > 100 µM | RPMI-8226 > 100 µM | SN12C > 100 µM | SNB-19 > 100 µM | SW-620 > 100 µM | UACC-62 > 100 µM

Cc1[nH]c2ccccc2c1C1Cc2ccccc2N1C(=O)/C(Cl)=C/c1ccccc1 (centres undefined)
inactive: 786-0 > 100 µM | A498 > 78.2 µM | COLO 205 > 100 µM | IGROV-1 61.1 µM | KM12 > 100 µM | M14 > 100 µM | NCI-H226 > 69 µM | NCI-H23 48.4 µM | NCI-H522 > 100 µM | OVCAR-4 > 88.1 µM | RPMI-8226 > 72.6 µM | SK-MEL-28 > 100 µM | SN12C > 100 µM | SNB-19 > 100 µM | SW-620 > 100 µM | UACC-62 > 100 µM

CCC1CCCCN1CC(C(C)=O)C(c1ccccc1)c1c(O)c2ccccc2oc1=O (centres undefined)
inactive: 786-0 > 100 µM | A498 > 100 µM | COLO 205 76.6 µM | IGROV-1 > 100 µM | KM12 > 100 µM | M14 > 100 µM | NCI-H226 18 µM | NCI-H23 > 100 µM | NCI-H522 > 100 µM | OVCAR-4 > 100 µM | RPMI-8226 69.5 µM | SK-MEL-28 > 100 µM | SN12C > 100 µM | SNB-19 > 100 µM | SW-620 > 100 µM | UACC-62 82.2 µM

CSc1nc2c(nc(N)n2C2OC(COC(C)=O)C(OC(C)=O)C(OC(C)=O)C2OC(C)=O)c(=O)n1C (centres undefined)
inactive: 786-0 > 100 µM | A498 > 100 µM | COLO 205 > 100 µM | IGROV-1 > 100 µM | KM12 > 100 µM | M14 > 100 µM | NCI-H226 > 100 µM | NCI-H23 > 100 µM | OVCAR-4 > 100 µM | RPMI-8226 > 100 µM | SN12C > 100 µM | SNB-19 > 100 µM | SW-620 > 100 µM | UACC-62 > 100 µM

NC1CCC2(O)c3ccccc3C2C1 (centres undefined)
inactive: 786-0 > 100 µM | COLO 205 > 100 µM | KM12 > 100 µM | M14 > 100 µM | NCI-H226 > 100 µM | NCI-H23 > 100 µM | NCI-H522 > 100 µM | OVCAR-4 > 100 µM | RPMI-8226 > 100 µM | SK-MEL-28 > 100 µM | SN12C > 100 µM | SNB-19 > 100 µM | SW-620 > 100 µM | UACC-62 > 100 µM

Cc1[nH]c2ccccc2c1-c1n[nH]c(=O)c2ccccc12
inactive: 786-0 27 µM | A498 19.8 µM | IGROV-1 31.5 µM | KM12 11.3 µM | M14 21 µM | NCI-H226 18.7 µM | NCI-H23 26 µM | OVCAR-4 29.3 µM | RPMI-8226 20.8 µM | SK-MEL-28 26.5 µM | SW-620 16.1 µM | UACC-62 19.5 µM

S=C1ON=C(c2ccccc2)/C1=C/Nc1ccccc1
inactive: 786-0 > 100 µM | A498 5.69 µM | COLO 205 > 100 µM | IGROV-1 > 100 µM | KM12 23.2 µM | M14 > 100 µM | NCI-H23 > 100 µM | NCI-H522 > 100 µM | OVCAR-4 9.62 µM | RPMI-8226 > 100 µM | SK-MEL-28 > 100 µM | SN12C > 100 µM | SNB-19 > 100 µM | SW-620 > 100 µM | UACC-62 3.24 µM

Clc1ccc2c(c1)-c1c3c(nn1-c1ccccc1)-c1ccccc1SC3O2 (centres undefined)
inactive: 786-0 > 100 µM | A498 > 100 µM | COLO 205 > 100 µM | IGROV-1 > 100 µM | KM12 > 100 µM | NCI-H23 > 100 µM | NCI-H522 29 µM | RPMI-8226 > 100 µM | SK-MEL-28 > 100 µM | SW-620 > 100 µM

CCOC(=O)/C=C1\CCCC12OCCO2
inactive: 786-0 > 100 µM | A498 > 100 µM | COLO 205 > 100 µM | IGROV-1 > 100 µM | KM12 > 100 µM | M14 > 100 µM | NCI-H226 > 100 µM | NCI-H522 2.87 µM | OVCAR-4 > 100 µM | RPMI-8226 49.7 µM | SK-MEL-28 > 100 µM | SN12C > 100 µM | SNB-19 > 100 µM | SW-620 > 100 µM | UACC-62 > 100 µM

Cc1ccc(/N=N/c2c(C)nn(-c3ccccc3)c2-c2ccccc2)c(Br)c1
inactive: 786-0 32.6 µM | A498 > 100 µM | IGROV-1 > 100 µM | KM12 > 100 µM | M14 > 100 µM | NCI-H226 > 100 µM | NCI-H522 97.1 µM | OVCAR-4 > 100 µM | SK-MEL-28 > 100 µM | SN12C > 100 µM | SNB-19 > 100 µM | SW-620 63.5 µM | UACC-62 40 µM

N#C/C(=C1\SC(C(N)=O)=C(N)N1c1ccccc1)c1nc2ccccc2[nH]1
inactive: 786-0 > 100 µM | A498 42.6 µM | COLO 205 59 µM | IGROV-1 37.3 µM | M14 > 100 µM | NCI-H226 > 100 µM | NCI-H23 > 100 µM | NCI-H522 > 100 µM | OVCAR-4 > 100 µM | SK-MEL-28 > 100 µM | SN12C > 100 µM | SNB-19 > 100 µM | SW-620 > 100 µM | UACC-62 > 100 µM
